Read-outs that look alike come from different tables or passages of the source.
Experiments:
LIMK2KD = biological target: T1, LIMK2KD (Homo sapiens, UniProt P53671); experiment: Differential (dynamic) scanning fluorimetry (DSF) assay, LIMK2KD; assay type: binding; conditions: for ΔTm at 10 µM: read-out: TM Shift LIMK2 (K)
T1 construct: The cDNA coding for LIMK2 residues 330 to 632 was PCR amplified; His6 (N, cleaved yes); made in house; host or cells: baculovirus; Sf9 for virus, TriEx insect cells for expression
T1 sequence (P53671 330-632): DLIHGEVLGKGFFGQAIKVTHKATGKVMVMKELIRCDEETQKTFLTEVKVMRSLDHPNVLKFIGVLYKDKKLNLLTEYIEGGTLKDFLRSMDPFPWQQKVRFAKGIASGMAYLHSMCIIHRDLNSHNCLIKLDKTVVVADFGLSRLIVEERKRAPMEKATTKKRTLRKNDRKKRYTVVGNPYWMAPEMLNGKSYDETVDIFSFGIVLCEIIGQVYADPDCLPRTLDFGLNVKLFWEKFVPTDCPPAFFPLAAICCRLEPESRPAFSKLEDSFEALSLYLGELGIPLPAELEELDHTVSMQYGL

LIMK1KD [1] = biological target: T2, LIMK1KD (Homo sapiens, UniProt P53667); experiment: Differential (dynamic) scanning fluorimetry (DSF) assay, LIMK1KD; assay type: binding; conditions: for ΔTm at 10 µM: read-out: TM Shift LIMK1 (K)
T2 construct: His6 (N, cleaved yes); made in house; host or cells: baculovirus; Sf9 for virus, TriEx insect cells for expression
T2 sequence (P53667 330-637): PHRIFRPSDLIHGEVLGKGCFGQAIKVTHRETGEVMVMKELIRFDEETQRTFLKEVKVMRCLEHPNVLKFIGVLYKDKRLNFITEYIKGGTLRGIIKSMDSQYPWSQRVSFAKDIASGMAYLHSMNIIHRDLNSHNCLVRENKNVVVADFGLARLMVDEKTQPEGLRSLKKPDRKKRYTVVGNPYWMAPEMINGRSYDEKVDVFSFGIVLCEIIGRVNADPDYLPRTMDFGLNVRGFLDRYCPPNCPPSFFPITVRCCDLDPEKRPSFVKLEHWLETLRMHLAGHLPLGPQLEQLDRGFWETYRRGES

LIMK1KD [2] = biological target: T2, LIMK1KD; experiment: RapidFire mass spec kinase activity assay (CFL1 phosphorylation); assay type: biochemical; conditions: 40 nM LIMK1KD, 2 µM CFL1, 800 µM ATP, 60 min; read-out: LIMK1 IC50
LIMK1 = conditions: cited from earlier work
[3] = LIMK2KD, compound 10 µM, single shot
[4] = 2 µM LIMK1KD, compound 10 µM, single shot
[5] = LIMK2KD, compound 10 µM, single shot, 10 µM

| Compound | TM Shift LIMK1 (K) (LIMK1KD [1]; [4]) | TM Shift LIMK2 (K) (LIMK2KD; [3]) | further results |
| --- | --- | --- | --- |
| CNC(=O)c1cc(Oc2ccc(NC(=O)Nc3cc(C(C)(C)C)nn3-c3ccc4ncccc4c3)c(F)c2)ccn1 [DCC-2036 (Rebastinib), Rebastinib] |  |  | ΔTm at 10 µM (LIMK2KD; [3]): 4.8 °C; ΔTm at 10 µM (LIMK1KD [1]; [4]): 10 °C; IC50 (LIMK1KD [2]): 75 nM |
| CC(C)(C)c1nc(-c2cccc(NS(=O)(=O)c3c(F)cccc3F)c2F)c(-c2ccnc(N)n2)s1 [Dabrafenib (GSK2118436), Dabrafenib] | 10 |  | TM Shift LIMK2 (K) (LIMK2KD; [5]): 11 K; ΔTm at 10 µM (LIMK2KD; [3]): 11.1 °C; ΔTm at 10 µM (LIMK1KD [1]; [4]): 10.3 °C; IC50 (LIMK1KD [2]): 14 nM |
| Cc1c[nH]c2ncnc(N3CCC(CN)(C(=O)Nc4cccc(OC(=O)N(C)C)c4)CC3)c12 [LX-7101] |  |  | IC50 (LIMK1; read-out: LIMK1 IC50): 32 nM |
| Cn1cc(-c2[nH]c3cc(NC(=O)[C@H](N)C4CCCCC4)cc4c3c2C=NNC4=O)cn1 [PF-477736] | 11 |  | ΔTm at 10 µM (LIMK2KD; [3]): 9 °C; ΔTm at 10 µM (LIMK1KD [1]; [4]): 11.1 °C; IC50 (LIMK1KD [2]): 4.4 nM |
| C=CC(=O)Nc1cccc(Sc2nc(Nc3ccc(N4CCN(C)CC4)cc3)ncc2Cl)c1 [WZ8040] | 3.1 | 5.2 |  |
| COC[C@H]1OC(=O)c2coc3c2[C@@]1(C)C1=C(C3=O)[C@@H]2CCC(=O)[C@@]2(C)C[C@H]1OC(C)=O [Wortmannin] |  |  | ΔTm at 10 µM (LIMK2KD; [3]): 0.1 °C; ΔTm at 10 µM (LIMK1KD [1]; [4]): 0.2 °C |
| O=C(Nc1ccc(-c2ccnc(Nc3ccc(N4CCOCC4)cc3)n2)cc1)C1CCCN1 (stereo not shown) [XL019] |  |  | ΔTm at 10 µM (LIMK2KD; [3]): 1.6 °C; ΔTm at 10 µM (LIMK1KD [1]; [4]): 4 °C |
| COc1ccc(Cl)c(Nc2nc3ccccc3nc2NS(=O)(=O)c2cccc(NC(=O)C(C)(C)N)c2)c1 [XL147] | -0.1 |  | TM Shift LIMK2 (K) (LIMK2KD; [5]): 0.6 K |
| Cc1c(C(=O)N2CCOc3ccc(-c4ccc(N)nc4)cc3C2)ccc(S(C)(=O)=O)c1F [XL388] | -1.4 | 2.7 |  |
| C[C@@H](N)[C@H]1CC[C@H](C(=O)Nc2ccncc2)CC1.Cl.Cl [Y-27632 2HCl] | -0.7 | 0.9 |  |
| FC(F)c1nc2ccccc2n1-c1nc(N2CCOCC2)nc(N2CCOCC2)n1 [ZSTK474] |  |  | ΔTm at 10 µM (LIMK2KD; [3]): 0 °C; ΔTm at 10 µM (LIMK1KD [1]; [4]): -1 °C |
| O=P(O)(O)C(O)(Cn1ccnc1)P(=O)(O)O [Zoledronic Acid] |  |  | ΔTm at 10 µM (LIMK2KD; [3]): 1.3 °C; ΔTm at 10 µM (LIMK1KD [1]; [4]): -0.7 °C |
| AZ23 | 3.6 | 0.8 |  |
| AZD4547 | -0.1 | -0.1 |  |
| CHIR-98014 |  |  | TM Shift LIMK2 (K) (LIMK2KD; 10 µM): 0.0 K; TM Shift LIMK1 (K) (LIMK1KD [1]): 5.0 K |
| WYE-354 | 0.2 | 4.1 |  |

Further lines, with some results ahead:

| TM Shift LIMK1 (K) (LIMK1KD [1]; [4]) | TM Shift LIMK2 (K) (LIMK2KD; [3]) | Compound | further results |
| --- | --- | --- | --- |
| 0.6 | 3.8 | Nc1ccc(C(=O)Nc2cccc(-c3nc(N4CCOCC4)c4oc5ncccc5c4n3)c2)cn1 [YM201636] |  |
| -1.0 | 1.2 | Cc1cc(C)nc(NS(=O)(=O)c2ccc(NC(=S)NC(=O)COc3ccc(Br)cc3Cl)cc2)n1 [ZCL278] |  |
| 0.2 | -1.4 | CC(C)N(CCC(=O)c1ccc2ccccc2c1)Cc1ccccc1.Cl [ZM 39923 HCl] |  |
| 0.4 | 1.8 | COc1cc2ncnc(Nc3ccc(Cl)cc3F)c2cc1OC [ZM 306416] |  |
| 0.0 | 2.6 | Cc1cc(F)c(Nc2ncnc3cc(OCc4ccccc4)ccc23)cc1O.Cl [ZM 323881 HCl] |  |
| 0.7 | 0.2 | Cc1ccc(NC(=O)c2cccc(N(C)C)c2)cc1NC(=O)c1ccc(O)cc1 [ZM 336372] |  |
| 0.1 | 0.8 | COc1cc2c(Nc3ccc(NC(=O)c4ccccc4)cc3)ncnc2cc1OCCCN1CCOCC1 [ZM 447439] |  |

Source: article PMC6835155, “Lessons from LIMK1 enzymology and their impact on inhibitor design” (Biochemical Journal, 2019)
